# Reference: patent publication EP3501280A1, “COMPOSITION COMPRISING AN AGROCHEMICALLY ACTIVE COMPOUND AND A CARBONATE” (priority 2017, dated 2019)
# What was measured:
# [1] = system: Blumeria graminis f. sp. hordei (type A6); assay: Curative leaf-segment test on barley; type: in vivo; details: barley (HORVX), 2 WAT; for Effect [%]: pustules relative to no carbonate
# Experimental: (§1) Plants tested: barley (HORVX); cultivation of plants: three plants per pot were cultivated in fine Frustorfer soil for three weeks.
# The plants were inoculated with fresh conidia of Blumeria graminis f. sp. hordei (type A6). 24-48h after inoculation with mildew, the plants were treated with the following liquid formulation: fungicidal formulation OPUS® SC 125 (BASF SE; comprising epoxiconazole). The effect of a carbonate (numbering according to Table 1 above) was tested by adding the respective carbonate to the liquid formulation prior to treatment of the plants.
# 10 hours after treatment with fungicidal formulation, beginning from the stalk, 7 cm leaf segments were cut; the most recent leaf and the second most recent leaf of a plant were used. 15 pieces of said 7 cm leaf segments were collected and put onto benzimidazole-agar (0.5% agar, 40 ppm benzimidazole added after treatment by autoclave. The agar plates (10x10cm) were then incubated at 18°C during night time and at 23°C during day time at 60-70% air moisture in an incubator for a certain time.
# The determination of the mildew infestation was carried out by mildew pustules per leaf within 5 cm leaf length. WAT (weeks after treatment) were chosen according to constant impairment observed. Table Ex6b: Dosing of agrochemically active compound with and without component (b) in curative leaf-segment test on barley (HORVX) and the infestation of mildew after WAT
# [2] = at 20°C; cited from earlier work
# [3] = system: Blumeria graminis f. sp. hordei (type A6); assay: Protective leaf-segment test on barley; type: in vivo; details: barley (HORVX), 2 WAT; for Effect [%]: infestation relative to no carbonate
# Experimental: as §1
# The plants were treated with the following SC formulation: fungicidal formulation - 25% by weight azoxystrobin, 16.7% by weight Tamol® NN 2901, 10% by weight propyleneglycol, 48.3% by weight water. The effect of a carbonate (numbering according to Table 1 above) was tested by adding the respective carbonate to the […] formulation prior to treatment of the plants.
# 10 hours after treatment with fungicidal formulation, beginning from the stalk, 7 cm leaf segments have been cut; the most recent and the second most recent leaf of a plant were used. 15 pieces of said 7 cm leaf segments were collected and put onto benzimidazole-agar (0.5% agar, 40 ppm benzimidazole added after treatment by autoclave).
# The leaf segments on the agar plates were inoculated with fresh conidia of Blumeria graminis f. sp. hordei (type A6).
# The agar plates (10x10cm) were then incubated at 18°C during night time and 23°C during day time at 60-70% air moisture in an incubator for a certain time.
# The determination of the mildew infestation was carried out by determining the surface per leaf within 5 cm leaf length infested with mildew. WAT (weeks after treatment) were chosen according to constant impairment observed.
# [4] = Determination of dynamic viscosity (Anton Paar viscosimeter SVM 3000/G2); type: physicochemical; details: dynamic viscosity at 23°C
# Experimental: (§2) Determination of boiling point: measured at a pressure below 101.3 kPa; the boiling point measured at this pressure below 101.3 kPa were used to calculate the boiling point at 101.3 kPa by using the following tool: http://www.calctool.org/CALC/chem/substance/boiling. Determination of dynamic viscosity: By using Anton Paar viscosimeter SVM 3000/G2, viscosity was measured at 23°C. Said Anton Paar viscosimeter is a rotational viskosimeter and works according the Stabinger measurement principle.
# [5] = Solubility of carbonates in water (OECD guideline 105, flask method); type: physicochemical; details: for Solubility of carbonates in water: OECD 105 flask method
# Description: The water solubility of a substance is the saturation mass concentration of the substance in water at a given temperature. Determination according to OECD guideline for testing of chemicals 105, flask method.
# [6] = Determination of boiling point of carbonates; type: physicochemical; details: calculated from boiling point measured at a pressure below 101.3 kPa
# Experimental: as §2
# [7] = epoxiconazole 10 g/ha (OPUS® SC 125), amount of carbonate 0 g/ha
# [8] = azoxystrobin 10 g/ha SC formulation plus carbonate No 1 at 50 g/ha
# [9] = epoxiconazole 10 g/ha (OPUS® SC 125) plus carbonate No 1 at 50 g/ha
# [10] = azoxystrobin 10 g/ha SC formulation, amount of carbonate 0 g/ha
smiles,measurement,setting,value
"Fc1ccc([C@]2(Cn3cncn3)O[C@H]2c2ccccc2Cl)cc1 (racemic) [pesticide 4, epoxiconazole, reference compound]",Mildew pustules - average value of 15 leaves,[1]; [7],41.3
same,Effect [%],[1]; [7],100%
same,Solubility in H2O (data from literature*),[2],8.42 mg/l at 20 °C
CCC(=O)OCC1COC(=O)O1 (stereo not shown) [compound 1],% leaf surface infested with mildew - average value of 15 leaves,[3]; [8],28%
same,Effect [%],[3]; [8],72.35%
same,Viscosity mPa.s at 23°C,[4],32 mPa.s
same,Solubility of carbonates in water,[5],54 g carbonate per l water
same,Boiling point °C at 101.3 kPa,[6],>180 °C
same,Mildew pustules - average value of 15 leaves,[1]; [9],34.7
same,Effect [%],[1]; [9],84%
CCCC1COC(=O)O1 (stereo not shown) [compound 2],Viscosity mPa.s at 23°C,[4],4.2 mPa.s
same,Solubility of carbonates in water,[5],21 g carbonate per l water
same,Boiling point °C at 101.3 kPa,[6],>180 °C
CC(=O)OCC1COC(=O)O1 (stereo not shown) [compound 3],Viscosity mPa.s at 23°C,[4],59.1 mPa.s
same,Solubility of carbonates in water,[5],72 g carbonate per l water
same,Boiling point °C at 101.3 kPa,[6],>180 °C
"CO/C=C(/C(=O)OC)c1ccccc1Oc1cc(Oc2ccccc2C#N)ncn1 [pesticide 2, azoxystrobin, reference compound]",% leaf surface infested with mildew - average value of 15 leaves,[3]; [10],38.7%
same,Effect [%],[3]; [10],100%
same,Solubility in H2O (data from literature*),[2],6.7 mg/l at 20 °C
"COC(=O)N(OC)c1ccccc1COc1ccn(-c2ccc(Cl)cc2)n1 [pesticide 3, pyraclostrobin]",Solubility in H2O (data from literature*),[2],1.9 mg/l at 20 °C
"CC(C)(C)C(O)(CCc1ccc(Cl)cc1)Cn1cncn1 (stereo not shown) [pesticide 5, tebuconazole]",Solubility in H2O (data from literature*),[2],29 mg/l at 20 °C
"CC(O)(Cn1cncn1)c1ccc(Oc2ccc(Cl)cc2)cc1C(F)(F)F (stereo not shown) [pesticide 7, mefentrifluconazole]",Solubility in H2O (data from literature*),[2],0.81 mg/l at 20 °C
"Cn1cc(C(=O)Nc2ccccc2-c2cc(F)c(F)c(F)c2)c(C(F)F)n1 [pesticide 8, fluxapyroxad]",Solubility in H2O (data from literature*),[2],3.88 mg/l at 20 °C
"CC(Cc1ccc(C(C)(C)C)cc1)CN1C[C@@H](C)O[C@@H](C)C1 (stereo partly shown) [pesticide 9, fenpropimorph]",Solubility in H2O (data from literature*),[2],4.3mg/l at 20 °C
"CC1COC(=O)O1 (stereo not shown) [propylene carbonate, reference compound]",water solubility,"[5]; comparison value for propylene carbonate, source not stated",175 mg/mL
